# Like-named read-outs stand apart in the source and are kept apart here.
# Columns and labels:
# [1] = tested on: IFNα-stimulated STAT-dependent luciferase reporter in Kit225 T cells; experiment: Kit225 T cell assay, IFNα stimulated STAT-dependent luciferase reporter; type: cell-based, human
# How it was run: (§1)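 Kit225 T cells carrying a stably integrated STAT-luciferase reporter, in RPMI with 10% heat-inactivated FBS, were stimulated with 20 ng/mL IL-23 or 200 U/mL IFNα for 5-6 h. Readout was luminescence from the luciferase reporter.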
# [2] = tested on: IL-23-stimulated STAT-dependent luciferase reporter in Kit225 T cells; experiment: Kit225 T cell assay, IL-23 stimulated STAT-dependent luciferase reporter; type: cell-based, human
# How it was run: as §1
# [3] = Kit225 T cells, 200 U/mL human recombinant IFNα, 5-6 hours, luciferase, read-out: IFNα (Kit225 T Cell Inhibition Data)
# [4] = Kit225 T cells, 20 ng/mL human recombinant IL-23, 5-6 hours, luciferase, read-out: IL23 (Kit225 T Cell Inhibition Data)
Compound,"IC50 [1, 3]","IC50 [2, 4]","IC50 ([1]; Homo sapiens, KIT225, read-out: IFNα (Kit225 T Cell Inhibition Data))","IC50 ([2]; Homo sapiens, KIT225, read-out: IL23 (Kit225 T Cell Inhibition Data))"
CNC(=O)c1cnc(Nc2cc(C)nc(C)n2)cc1Nc1cccc(-c2ncn(CC(F)(F)F)n2)c1OC [Example 380],30 nM,40 nM,–,–
CNC(=O)c1cnc(Nc2ccc(N3CCOCC3)cn2)cc1Nc1ccc(Br)cc1OC [Example 221],150 nM,456 nM,–,–
CNC(=O)c1cnc(Nc2ccc(N3CCOCC3)cn2)cc1Nc1ccccc1C(N)=O [Example 85],630 nM,1040 nM,–,–
CNC(=O)c1ccnc(Nc2cc(Nc3ccc(F)c(F)c3OC)c(C(=O)NC)cn2)c1 [Example 257],600 nM,577 nM,–,–
CNC(=O)c1cnc(Nc2cc(C)ccn2)cc1Nc1ccc(Cl)cc1OC [Example 113],200 nM,876 nM,–,–
CNC(=O)c1cnc(Nc2cc(C(F)(F)F)ccn2)cc1Nc1ccccc1C(N)=O [Example 91],420 nM,567 nM,–,–
CNC(=O)c1cnc(Nc2cc(C3CCC3)[nH]n2)cc1Nc1ccccc1S(C)(=O)=O [Example 445],320 nM,530 nM,–,–
CNC(=O)c1cnc(Nc2ccc(N3CCCC3=O)cn2)cc1Nc1ccccc1S(C)(=O)=O [Example 441],240 nM,460 nM,–,–
CNC(=O)c1cnc(Nc2ccc(N3CCOCC3)cn2)cc1Nc1ccc(F)cc1OC [Example 218],260 nM,802 nM,–,–
CNC(=O)c1cnc(Nc2cc(-n3ccccc3=O)ccn2)cc1Nc1cc(F)cc(F)c1OC [Example 167],310 nM,510 nM,–,–
CNC(=O)c1cnc(Nc2ccc(F)cn2)cc1Nc1ccc(C(N)=O)cc1S(C)(=O)=O [Example 303],2650 nM,2340 nM,–,–
CNC(=O)c1cnc(Nc2ccc(F)cn2)cc1Nc1ccccc1O [Example 208],2410 nM,1850 nM,–,–
CCOc1ccccc1Nc1cc(Nc2ccc(N3CCOCC3)cn2)ncc1C(=O)NC [Example 223],190 nM,386 nM,–,–
CNC(=O)c1cnc(Nc2ccc(-n3cc(F)ccc3=O)cn2)cc1Nc1ccccc1S(C)(=O)=O [Example 301],1460 nM,3160 nM,–,–
CNC(=O)c1cnc(Nc2cc(C(N)=O)ccn2)cc1Nc1cccc(F)c1OC [Example 276],1170 nM,1340 nM,–,–
CNC(=O)c1cnc(Nc2ccc(F)cn2)cc1Nc1ccc(C(N)=O)cc1C [Example 234],1870 nM,2800 nM,–,–
CNC(=O)c1cnc(Nc2cc(C)nc(C)n2)cc1Nc1cccc(-c2ncn(CCF)n2)c1OC [Example 377],20 nM,20 nM,–,–
CNC(=O)c1cnc(Nc2ccc(F)cn2)cc1Nc1ccccc1C(N)=O [Example 63],410 nM,774 nM,–,–
CNC(=O)c1cnc(Nc2cc(C(N)=O)ccn2)cc1Nc1ccc(Cl)cc1OC [Example 97],3250 nM,3910 nM,–,–
CNC(=O)c1cnc(Nc2ccc(N3CCCC3=O)cn2)cc1Nc1ccc(F)cc1OCF [Example 142],410 nM,742 nM,–,–
CNC(=O)c1cnc(Nc2cc(C)c(F)cn2)cc1Nc1cccc(C(=O)NCC2(C)COC2)c1OC [Example 343],140 nM,160 nM,–,–
CNC(=O)c1cnc(Nc2cc(C)c(F)cn2)cc1Nc1cccc(C(=O)NCc2ccccc2)c1OC [Example 351],20 nM,60 nM,–,–

Compound,"IC50 [1, 3]","IC50 [2, 4]","IC50 ([1]; Homo sapiens, KIT225, read-out: IFNα (Kit225 T Cell Inhibition Data))","IC50 ([2]; Homo sapiens, KIT225, read-out: IL23 (Kit225 T Cell Inhibition Data))"
CNC(=O)c1cnc(Nc2ccc(OC)cn2)cc1Nc1cc(F)cc(F)c1OC [Example 133],70 nM,179 nM,–,–
CNC(=O)c1cnc(Nc2cc(C(N)=O)ccn2)cc1Nc1ccc(F)c(F)c1OC [Example 256],700 nM,568 nM,–,–
CNC(=O)c1cnc(Nc2ccc(F)cn2)cc1Nc1ccc(S(C)(=O)=O)cc1 [Example 201],6970 nM,2670 nM,–,–
CNC(=O)c1cnc(Nc2ccc(F)cn2)cc1Nc1ccc(C#N)cc1S(C)(=O)=O [Example 310],–,–,590 nM,1080 nM
CNC(=O)c1cnc(Nc2ccc(F)cn2)cc1Nc1ccc(N2CCOCC2)cc1OC [Example 187],2580 nM,2820 nM,–,–
CCOc1c(F)cc(F)cc1Nc1cc(Nc2ccc(N3CCOCC3)cn2)ncc1C(=O)NC [Example 230],160 nM,224 nM,–,–
CCNC(=O)c1cnc(Nc2ccc(F)cn2)cc1Nc1ccccc1S(C)(=O)=O [Example 297],600 nM,250 nM,–,–
CNC(=O)c1cnc(Nc2ccccn2)cc1Nc1ccccc1NS(C)(=O)=O [Example 428],110 nM,90 nM,–,–
CCOc1ccc(Nc2cc(Nc3ccccc3S(C)(=O)=O)c(C(=O)NC)cn2)nn1 [Example 444],180 nM,250 nM,–,–
CNC(=O)c1cnc(Nc2ccc(N3CCCCC3=O)cn2)cc1Nc1ccc(Cl)cc1OC [Example 103],330 nM,398 nM,–,–
CNC(=O)c1cnc(Nc2ccccn2)cc1Nc1ccccc1C(C)(C)O [Example 183],5970 nM,9720 nM,–,–
CNC(=O)c1cnc(Nc2cc(C#N)ccn2)cc1Nc1ccccc1NS(C)(=O)=O [Example 281],140 nM,140 nM,–,–
CNC(=O)c1cnc(Nc2ccc(F)cn2)cc1Nc1ccc(C(=O)NC2CC2F)cc1S(C)(=O)=O (stereo not shown) [Example 307],1540 nM,3740 nM,–,–
CNC(=O)c1cnc(Nc2cc(C(=O)N3CCOCC3)ccn2)cc1Nc1ccc(F)cc1OC [Example 269],900 nM,1080 nM,–,–
CNC(=O)c1cnc(Nc2cc(C)c(C#N)c(C)n2)cc1Nc1cc(F)cc(F)c1OC [Example 140],120 nM,281 nM,–,–
CNC(=O)c1cnc(Nc2ccc(F)cn2)cc1Nc1ccc(C(=O)N2CCOCC2)cc1C [Example 236],1110 nM,2180 nM,–,–
CNC(=O)c1cnc(Nc2cc(C)nc(C)n2)cc1Nc1cccc(-c2nc(C)n(CCF)n2)c1OC [Example 368],10 nM,9.45 nM,–,–
CNC(=O)c1cnc(Nc2ccc(F)cn2)cc1Nc1cccc(C(=O)NC)c1OC [Example 316],100 nM,70 nM,–,–
CNC(=O)c1cnc(Nc2ccc(C#N)c(C)n2)cc1Nc1ccc(Cl)cc1OC [Example 118],570 nM,1160 nM,–,–
CNC(=O)c1cnc(Nc2ccc(F)cn2)cc1Nc1cccc(F)c1OC [Example 171],90 nM,175 nM,–,–
CNC(=O)c1cnc(Nc2cc(COC)nc(C)n2)cc1Nc1ccccc1S(C)(=O)=O [Example 418],210 nM,350 nM,–,–
CNC(=O)c1cnc(Nc2ccc(F)cn2)cc1Nc1ccccc1-c1nnc[nH]1 [Example 186],7850 nM,7810 nM,–,–

Compound,"IC50 [1, 3]","IC50 [2, 4]","IC50 ([1]; Homo sapiens, KIT225, read-out: IFNα (Kit225 T Cell Inhibition Data))","IC50 ([2]; Homo sapiens, KIT225, read-out: IL23 (Kit225 T Cell Inhibition Data))"
CNC(=O)c1cnc(Nc2ccccn2)cc1Nc1cc(F)ccc1S(C)(=O)=O [Example 53],80 nM,90 nM,–,–
CNC(=O)c1cnc(Nc2cc(C#N)ccn2)cc1Nc1cccc(F)c1OC [Example 173],50 nM,81.9 nM,–,–
CNC(=O)c1cnc(Nc2cc(OC)ccn2)cc1Nc1cc(F)cc(F)c1OC [Example 169],440 nM,352 nM,–,–
CNC(=O)c1cnc(Nc2cc(C)c(F)cn2)cc1Nc1cccc(-c2ccnn2C)c1OC [Example 392],70 nM,170 nM,–,–
CNC(=O)c1cnc(Nc2cc(C#N)ccn2)cc1Nc1ccc(F)cc1OC [Example 155],190 nM,275 nM,–,–
CNC(=O)c1cnc(Nc2cc(C(=O)NCC#N)ccn2)cc1Nc1cccc(F)c1OC [Example 278],960 nM,374 nM,–,–
CNC(=O)c1cnc(Nc2cc(F)ccn2)cc1Nc1ccccc1C(N)=O [Example 71],760 nM,574 nM,–,–
[2H]C([2H])([2H])NC(=O)c1cnc(Nc2cc(CO)ccn2)cc1Nc1cccc(-c2csc(C)n2)c1OC [Example 405],10 nM,20 nM,–,–
CNC(=O)c1cnc(Nc2cc(N(C)Cc3ccccc3)ncn2)cc1Nc1ccccc1S(C)(=O)=O [Example 425],380 nM,670 nM,–,–
CNC(=O)c1cnc(Nc2cc(C)nc(C)n2)cc1Nc1cccc(-c2ncn(CC(F)F)n2)c1OC [Example 378],10 nM,50 nM,–,–
CNC(=O)c1cnc(Nc2cc(C)c(F)cn2)cc1Nc1cccc(C(=O)NCCO)c1OC [Example 336],440 nM,400 nM,–,–
CNC(=O)c1cnc(Nc2ccccn2)cc1Nc1ccc(OC)cc1S(C)(=O)=O [Example 8],60 nM,143 nM,–,–
CNC(=O)c1cnc(Nc2ccc(N3CCCCC3)cn2)cc1Nc1ccccc1S(C)(=O)=O [Example 435],50 nM,30 nM,–,–
CNC(=O)c1cnc(Nc2ccc(F)cn2)cc1Nc1cccc(-c2ncn(C)n2)c1OC [Example 373],8.34 nM,6.22 nM,–,–
CNC(=O)c1cnc(Nc2cccc(C)n2)cc1Nc1ccccc1C(N)=O [Example 67],140 nM,263 nM,–,–
CNC(=O)c1cnc(Nc2ccc(C(F)(F)F)cn2)cc1Nc1ccccc1S(C)(=O)=O [Example 59],120 nM,370 nM,–,–
CNC(=O)c1cnc(Nc2cccc(-c3ccccc3)n2)cc1Nc1cc(F)cc(F)c1OC [Example 143],560 nM,783 nM,–,–
CNC(=O)c1cnc(Nc2cc(C)c(F)cn2)cc1Nc1ccc(C(=O)N2CC(F)(F)C2)cc1S(C)(=O)=O [Example 413],460 nM,470 nM,–,–
CNC(=O)c1cnc(Nc2cc3ccccc3cn2)cc1Nc1cc(F)cc(F)c1OC [Example 136],390 nM,747 nM,–,–
CNC(=O)c1cnc(Nc2ccc(F)cn2)cc1Nc1cccc2[nH]ccc12 [Example 212],2030 nM,4170 nM,–,–
CNC(=O)c1cnc(Nc2cc(C)c(F)cn2)cc1Nc1cccc(C(=O)NCC2(C#N)CC2)c1OC [Example 354],130 nM,150 nM,–,–
